According to article PMC10337138 (Acta Neuropathologica Communications, 2023):

Experiments:
[1] = biological target: T1, CAMK1A (Homo sapiens, UniProt Q14012); details: 1 mM ATP; inhibitor
T1 construct: gene CAMK1
Procedure: (§1) Kinase selectivity panel Kinome profiling was conducted by AssayQuant Technologies (Marlboro, MA) using Sox chromophore technology and Sox-based peptide substrates developed for human kinases in a 384-well format. Compounds were tested at 1 µM in the presence of 1 mM ATP.

[2] = biological target: CAMK2D (Homo sapiens, UniProt Q13557); details: 1 mM ATP; inhibitor
Procedure: as §1

[3] = biological target: CSF1R/FMS (Homo sapiens, UniProt P07333); details: 1 mM ATP; inhibitor
Chain of CSF1R/FMS (P07333 whole entry): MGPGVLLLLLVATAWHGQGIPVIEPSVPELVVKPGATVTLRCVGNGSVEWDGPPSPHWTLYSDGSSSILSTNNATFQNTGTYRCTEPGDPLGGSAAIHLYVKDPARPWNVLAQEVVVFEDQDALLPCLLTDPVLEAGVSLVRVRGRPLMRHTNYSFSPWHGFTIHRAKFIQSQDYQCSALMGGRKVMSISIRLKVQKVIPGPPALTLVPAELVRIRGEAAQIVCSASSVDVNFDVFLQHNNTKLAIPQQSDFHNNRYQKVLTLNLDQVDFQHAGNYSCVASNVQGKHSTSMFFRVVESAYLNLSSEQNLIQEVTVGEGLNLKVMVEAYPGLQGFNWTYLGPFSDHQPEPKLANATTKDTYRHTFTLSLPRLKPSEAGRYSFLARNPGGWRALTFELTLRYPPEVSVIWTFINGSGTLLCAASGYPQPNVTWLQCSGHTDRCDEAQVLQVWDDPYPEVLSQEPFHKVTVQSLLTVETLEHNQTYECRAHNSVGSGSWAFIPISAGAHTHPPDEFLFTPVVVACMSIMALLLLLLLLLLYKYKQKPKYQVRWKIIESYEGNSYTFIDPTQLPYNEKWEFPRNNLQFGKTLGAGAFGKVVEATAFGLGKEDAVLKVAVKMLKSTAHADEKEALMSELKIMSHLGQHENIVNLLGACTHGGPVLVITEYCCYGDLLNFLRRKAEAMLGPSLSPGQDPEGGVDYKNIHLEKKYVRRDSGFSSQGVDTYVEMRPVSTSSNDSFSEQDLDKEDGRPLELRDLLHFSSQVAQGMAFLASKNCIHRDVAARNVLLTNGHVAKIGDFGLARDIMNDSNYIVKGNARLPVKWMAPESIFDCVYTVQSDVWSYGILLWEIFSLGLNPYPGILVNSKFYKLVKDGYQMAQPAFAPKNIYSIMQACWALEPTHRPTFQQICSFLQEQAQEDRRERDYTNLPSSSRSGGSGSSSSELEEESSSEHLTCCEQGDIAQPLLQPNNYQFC
Procedure: as §1

[4] = biological target: DDR1 (Homo sapiens, UniProt Q08345); details: 1 mM ATP; inhibitor
Procedure: as §1

[5] = biological target: EIF2AK4/GCN2 (Homo sapiens, UniProt Q9P2K8); details: 1 mM ATP; inhibitor
Procedure: as §1

[6] = biological target: EPHA2 (Homo sapiens, UniProt P29317); details: 1 mM ATP; inhibitor
Procedure: as §1

[7] = biological target: EPHA3 (Homo sapiens, UniProt P29320); details: 1 mM ATP; inhibitor
Chain of EPHA3 (P29320 whole entry): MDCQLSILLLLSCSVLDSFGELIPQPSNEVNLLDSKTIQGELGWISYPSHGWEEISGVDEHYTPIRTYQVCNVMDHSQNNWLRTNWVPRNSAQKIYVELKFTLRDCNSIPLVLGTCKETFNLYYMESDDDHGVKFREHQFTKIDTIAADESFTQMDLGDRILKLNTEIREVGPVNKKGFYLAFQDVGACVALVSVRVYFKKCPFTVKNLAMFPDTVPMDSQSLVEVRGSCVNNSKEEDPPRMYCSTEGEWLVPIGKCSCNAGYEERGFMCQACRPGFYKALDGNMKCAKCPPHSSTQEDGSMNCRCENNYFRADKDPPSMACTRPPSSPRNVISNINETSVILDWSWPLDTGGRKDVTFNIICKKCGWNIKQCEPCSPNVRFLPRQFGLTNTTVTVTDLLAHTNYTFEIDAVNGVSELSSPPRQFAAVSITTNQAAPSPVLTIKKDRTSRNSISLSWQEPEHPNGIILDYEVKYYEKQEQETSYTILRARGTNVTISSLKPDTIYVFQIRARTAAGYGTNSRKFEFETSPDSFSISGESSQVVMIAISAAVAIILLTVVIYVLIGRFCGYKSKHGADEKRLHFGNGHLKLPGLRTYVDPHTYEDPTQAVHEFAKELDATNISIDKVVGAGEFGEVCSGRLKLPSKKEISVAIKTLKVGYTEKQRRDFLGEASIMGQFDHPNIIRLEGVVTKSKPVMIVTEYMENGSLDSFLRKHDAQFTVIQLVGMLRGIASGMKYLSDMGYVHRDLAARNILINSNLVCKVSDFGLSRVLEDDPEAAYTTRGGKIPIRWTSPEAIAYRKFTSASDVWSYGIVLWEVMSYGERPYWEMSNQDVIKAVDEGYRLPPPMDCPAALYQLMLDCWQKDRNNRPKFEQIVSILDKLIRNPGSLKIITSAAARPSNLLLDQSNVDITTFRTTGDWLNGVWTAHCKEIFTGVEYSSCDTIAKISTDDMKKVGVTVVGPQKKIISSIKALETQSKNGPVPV
Procedure: as §1

[8] = biological target: FGFR1 (Homo sapiens, UniProt P11362); details: 1 mM ATP; inhibitor
Procedure: as §1

[9] = biological target: GAK (Homo sapiens, UniProt O14976); details: 1 mM ATP; inhibitor
Procedure: as §1

[10] = biological target: GRK3 (Homo sapiens, UniProt P35626); details: 1 mM ATP; inhibitor
Procedure: as §1

[11] = biological target: HIPK3 (Homo sapiens, UniProt Q9H422); details: 1 mM ATP; inhibitor
Procedure: as §1

[12] = biological target: JAK2(JH1) (Homo sapiens, UniProt O60674); details: 1 mM ATP; inhibitor
Procedure: as §1

[13] = biological target: T2, LYNA (Homo sapiens, UniProt P07948); details: 1 mM ATP; inhibitor
T2 construct: gene LYN
Procedure: as §1

[14] = biological target: T3, LYNB (Homo sapiens, UniProt P07948); details: 1 mM ATP; inhibitor
T3 construct: gene LYN
Procedure: as §1

[15] = biological target: MAP2K2/MEK2 (Homo sapiens, UniProt P36507); details: 1 mM ATP; inhibitor
Procedure: as §1

[16] = biological target: MAPK7/ERK5 (Homo sapiens, UniProt Q13164); details: 1 mM ATP; inhibitor
Procedure: as §1

[17] = biological target: MAPK8/JNK1 (Homo sapiens, UniProt P45983); details: 1 mM ATP; inhibitor
Procedure: as §1

[18] = biological target: MAPKAPK2/MK2 (Homo sapiens, UniProt P49137); details: 1 mM ATP; inhibitor
Procedure: as §1

[19] = biological target: MARK3 (Homo sapiens, UniProt P27448); details: 1 mM ATP; inhibitor
Chain of MARK3 (P27448 whole entry): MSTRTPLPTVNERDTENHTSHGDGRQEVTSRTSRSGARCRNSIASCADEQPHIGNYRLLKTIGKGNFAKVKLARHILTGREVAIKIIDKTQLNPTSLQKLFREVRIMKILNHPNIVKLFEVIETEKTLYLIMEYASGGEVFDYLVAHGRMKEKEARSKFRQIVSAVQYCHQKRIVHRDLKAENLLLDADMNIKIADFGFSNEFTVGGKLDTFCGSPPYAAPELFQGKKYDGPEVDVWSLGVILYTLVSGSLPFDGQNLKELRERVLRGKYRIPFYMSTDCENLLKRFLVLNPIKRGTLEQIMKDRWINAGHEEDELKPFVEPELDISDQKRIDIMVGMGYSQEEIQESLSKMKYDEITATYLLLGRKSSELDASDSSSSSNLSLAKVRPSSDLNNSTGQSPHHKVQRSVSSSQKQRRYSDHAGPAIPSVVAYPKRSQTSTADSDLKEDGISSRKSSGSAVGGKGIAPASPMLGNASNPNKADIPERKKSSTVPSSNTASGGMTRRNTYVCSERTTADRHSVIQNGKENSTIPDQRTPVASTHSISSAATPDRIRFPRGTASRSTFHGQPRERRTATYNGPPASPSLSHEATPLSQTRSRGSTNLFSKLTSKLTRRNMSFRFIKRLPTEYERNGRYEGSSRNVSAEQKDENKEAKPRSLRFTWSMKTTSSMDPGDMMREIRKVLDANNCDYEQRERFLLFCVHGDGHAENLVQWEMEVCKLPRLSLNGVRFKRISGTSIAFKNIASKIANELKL
Procedure: as §1

[20] = biological target: MST1R/RON (Homo sapiens, UniProt Q04912); details: 1 mM ATP; inhibitor
Procedure: as §1

[21] = biological target: NEK11 (Homo sapiens, UniProt Q8NG66); details: 1 mM ATP; inhibitor
Procedure: as §1

[22] = biological target: NEK9 (Homo sapiens, UniProt Q8TD19); details: 1 mM ATP; inhibitor
Procedure: as §1

[23] = biological target: NLK (Homo sapiens, UniProt Q9UBE8); details: 1 mM ATP; inhibitor
Procedure: as §1

[24] = biological target: NUAK1 (Homo sapiens, UniProt O60285); details: 1 mM ATP; inhibitor
Procedure: as §1

[25] = biological target: PIM1 (Homo sapiens, UniProt P11309); details: 1 mM ATP; inhibitor
Procedure: as §1

[26] = biological target: PNCK/CAMK1B (Homo sapiens, UniProt Q6P2M8); details: 1 mM ATP; inhibitor
Procedure: as §1

[27] = biological target: PRKACG (Homo sapiens, UniProt P22612); details: 1 mM ATP; inhibitor
Procedure: as §1

[28] = biological target: PRKCQ/PKCQ (Homo sapiens, UniProt Q04759); details: 1 mM ATP; inhibitor
Procedure: as §1

[29] = biological target: SNRK (Homo sapiens, UniProt Q9NRH2); details: 1 mM ATP; inhibitor
Procedure: as §1

[30] = biological target: STK11/LKB1 (Homo sapiens, UniProt Q15831); details: 1 mM ATP; inhibitor
Procedure: as §1

[31] = biological target: TNIK (Homo sapiens, UniProt Q9UKE5); details: 1 mM ATP; inhibitor
Procedure: as §1

[32] = biological target: TNK1 (Homo sapiens, UniProt Q13470); details: 1 mM ATP; inhibitor
Procedure: as §1

[33] = biological target: TTBK2 (Homo sapiens, UniProt Q6IQ55); details: 1 mM ATP; inhibitor
Procedure: as §1

[34] = biological target: TYK2(JH1JH2) (Homo sapiens, UniProt P29597); details: 1 mM ATP; inhibitor
Chain of TYK2(JH1JH2) (P29597 whole entry): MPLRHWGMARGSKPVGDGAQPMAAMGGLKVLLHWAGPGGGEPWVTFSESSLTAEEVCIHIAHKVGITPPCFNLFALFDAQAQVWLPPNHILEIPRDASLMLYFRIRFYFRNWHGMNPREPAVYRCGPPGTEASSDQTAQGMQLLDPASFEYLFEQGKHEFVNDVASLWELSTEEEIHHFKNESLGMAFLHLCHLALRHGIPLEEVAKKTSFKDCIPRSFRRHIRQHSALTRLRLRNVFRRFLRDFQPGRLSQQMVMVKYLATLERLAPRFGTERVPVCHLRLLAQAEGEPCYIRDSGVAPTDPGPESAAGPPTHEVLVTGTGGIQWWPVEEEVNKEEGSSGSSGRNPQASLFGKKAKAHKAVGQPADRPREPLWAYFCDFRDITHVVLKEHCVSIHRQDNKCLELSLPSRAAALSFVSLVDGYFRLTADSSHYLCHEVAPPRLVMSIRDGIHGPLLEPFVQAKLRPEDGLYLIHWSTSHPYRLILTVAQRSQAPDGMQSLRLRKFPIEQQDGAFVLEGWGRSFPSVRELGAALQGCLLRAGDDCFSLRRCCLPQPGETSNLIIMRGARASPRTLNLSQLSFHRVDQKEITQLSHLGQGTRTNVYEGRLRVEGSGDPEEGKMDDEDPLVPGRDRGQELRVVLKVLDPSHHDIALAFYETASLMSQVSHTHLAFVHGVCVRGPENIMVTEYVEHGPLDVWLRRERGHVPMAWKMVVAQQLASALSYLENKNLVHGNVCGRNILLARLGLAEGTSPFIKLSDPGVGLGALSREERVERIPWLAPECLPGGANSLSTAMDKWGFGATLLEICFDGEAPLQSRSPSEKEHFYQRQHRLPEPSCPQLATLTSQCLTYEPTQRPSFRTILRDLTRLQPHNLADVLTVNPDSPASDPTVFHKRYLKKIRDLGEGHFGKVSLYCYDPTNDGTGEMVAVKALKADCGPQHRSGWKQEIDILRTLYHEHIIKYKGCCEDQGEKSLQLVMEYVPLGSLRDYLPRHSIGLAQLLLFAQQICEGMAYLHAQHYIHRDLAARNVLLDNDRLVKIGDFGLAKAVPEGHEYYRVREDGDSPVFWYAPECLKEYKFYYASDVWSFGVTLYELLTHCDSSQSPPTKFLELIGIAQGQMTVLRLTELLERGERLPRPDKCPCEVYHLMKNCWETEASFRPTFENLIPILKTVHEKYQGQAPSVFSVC
Procedure: as §1

[35] = biological target: DYRK1B (Homo sapiens, UniProt Q9Y463); experiment: biochemical; details: read-out: 1 µM GBD# (ibrutinib), % inhibition
Chain of DYRK1B (Q9Y463 whole entry): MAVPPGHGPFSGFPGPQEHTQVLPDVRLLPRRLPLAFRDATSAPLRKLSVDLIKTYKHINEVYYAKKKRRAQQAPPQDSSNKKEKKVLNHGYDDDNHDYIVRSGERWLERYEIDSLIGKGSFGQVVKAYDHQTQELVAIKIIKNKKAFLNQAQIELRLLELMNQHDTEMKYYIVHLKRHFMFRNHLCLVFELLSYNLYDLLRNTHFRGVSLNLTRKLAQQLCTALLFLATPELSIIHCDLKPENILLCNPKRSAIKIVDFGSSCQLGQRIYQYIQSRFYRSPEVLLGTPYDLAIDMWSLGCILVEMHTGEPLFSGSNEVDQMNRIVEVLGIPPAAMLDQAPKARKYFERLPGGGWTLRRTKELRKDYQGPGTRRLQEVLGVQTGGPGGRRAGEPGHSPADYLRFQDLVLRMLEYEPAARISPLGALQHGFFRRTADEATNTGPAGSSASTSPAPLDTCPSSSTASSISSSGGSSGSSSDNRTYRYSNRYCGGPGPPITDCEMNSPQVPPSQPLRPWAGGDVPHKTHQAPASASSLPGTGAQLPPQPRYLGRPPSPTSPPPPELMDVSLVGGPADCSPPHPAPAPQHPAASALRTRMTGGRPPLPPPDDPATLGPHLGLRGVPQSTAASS

[36] = biological target: LTK (Homo sapiens, UniProt P29376); experiment: biochemical; details: read-out: 1 µM GBD# (ibrutinib), % inhibition
[37] = biological target: STK33 (Homo sapiens, UniProt Q9BYT3); experiment: biochemical; details: read-out: 1 µM GBD# (ibrutinib), % inhibition
[38] = biological target: TTBK1 (Homo sapiens, UniProt Q5TCY1); experiment: biochemical; details: read-out: 1 µM GBD# (ibrutinib), % inhibition

T1 sequence (Q14012 whole entry): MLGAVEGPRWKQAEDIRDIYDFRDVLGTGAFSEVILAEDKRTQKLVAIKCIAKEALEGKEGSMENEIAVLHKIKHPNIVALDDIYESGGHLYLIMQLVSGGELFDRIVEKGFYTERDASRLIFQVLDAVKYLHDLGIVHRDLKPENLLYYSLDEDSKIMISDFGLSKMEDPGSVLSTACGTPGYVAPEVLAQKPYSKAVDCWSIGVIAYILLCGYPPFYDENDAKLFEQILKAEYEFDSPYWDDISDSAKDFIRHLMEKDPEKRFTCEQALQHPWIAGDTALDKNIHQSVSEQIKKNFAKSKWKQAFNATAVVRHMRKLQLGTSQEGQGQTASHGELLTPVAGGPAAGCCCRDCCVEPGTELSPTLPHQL

Question: Which “1 µM GBD00276 (ibrutinib), % inhibition” value [1] does the source give for `C=CC(=O)N1CCC[C@@H](n2nc(-c3ccc(Oc4ccccc4)cc3)c3c(N)ncnc32)C1` [Ibrutinib] here?
Answer: Its value is -26.28%.

Question: What about the “1 µM GBD00276 (ibrutinib), % inhibition” value [2] of the same compound?
Answer: Its value is 12.33%.

Question: And the “1 µM GBD00276 (ibrutinib), % inhibition” value [3]?
Answer: The value was 9.642%.

Question: What about the “1 µM GBD00276 (ibrutinib), % inhibition” value [4] of the same compound?
Answer: The value was 24.25%.

Question: What about the “1 µM GBD00276 (ibrutinib), % inhibition” value [5] of the same compound?
Answer: The value was -3.934%.

Question: And the “1 µM GBD00276 (ibrutinib), % inhibition” value [6]?
Answer: The value was 9.007%.

Question: What about the “1 µM GBD00276 (ibrutinib), % inhibition” value [7] of the same compound?
Answer: Its value is 12.32%.

Question: What about the “1 µM GBD00276 (ibrutinib), % inhibition” value [8] of the same compound?
Answer: Its value is 21.97%.

Question: And the “1 µM GBD00276 (ibrutinib), % inhibition” value [9]?
Answer: The value was -7.706%.

Question: And the “1 µM GBD00276 (ibrutinib), % inhibition” value [10]?
Answer: Its value is -19.22%.

Question: And the “1 µM GBD00276 (ibrutinib), % inhibition” value [11]?
Answer: Its value is -0.6618%.

Question: And the “1 µM GBD00276 (ibrutinib), % inhibition” value [12]?
Answer: Its value is 4.378%.

Question: What about the “1 µM GBD00276 (ibrutinib), % inhibition” value [13] of the same compound?
Answer: The value was 35.64%.

Question: And the “1 µM GBD00276 (ibrutinib), % inhibition” value [14]?
Answer: The value was 40.58%.

Question: And the “1 µM GBD00276 (ibrutinib), % inhibition” value [15]?
Answer: The value was -23.38%.

Question: What about the “1 µM GBD00276 (ibrutinib), % inhibition” value [16] of the same compound?
Answer: Its value is -0.1217%.

Question: What about the “1 µM GBD00276 (ibrutinib), % inhibition” value [17] of the same compound?
Answer: The value was 10.25%.

Question: And the “1 µM GBD00276 (ibrutinib), % inhibition” value [18]?
Answer: Its value is 8.023%.

Question: And the “1 µM GBD00276 (ibrutinib), % inhibition” value [19]?
Answer: Its value is 4.514%.

Question: And the “1 µM GBD00276 (ibrutinib), % inhibition” value [20]?
Answer: Its value is 1.112%.

Question: What about the “1 µM GBD00276 (ibrutinib), % inhibition” value [21] of the same compound?
Answer: Its value is -9.805%.

Question: What about the “1 µM GBD00276 (ibrutinib), % inhibition” value [22] of the same compound?
Answer: The value was 2.083%.

Question: What about the “1 µM GBD00276 (ibrutinib), % inhibition” value [23] of the same compound?
Answer: Its value is -34.47%.

Question: And the “1 µM GBD00276 (ibrutinib), % inhibition” value [24]?
Answer: The value was -1.079%.

Question: And the “1 µM GBD00276 (ibrutinib), % inhibition” value [25]?
Answer: The value was 0.08032%.

Question: And the “1 µM GBD00276 (ibrutinib), % inhibition” value [26]?
Answer: Its value is -21.96%.

Question: What about the “1 µM GBD00276 (ibrutinib), % inhibition” value [27] of the same compound?
Answer: Its value is -12.39%.

Question: What about the “1 µM GBD00276 (ibrutinib), % inhibition” value [28] of the same compound?
Answer: The value was 12.04%.

Question: And the “1 µM GBD00276 (ibrutinib), % inhibition” value [29]?
Answer: Its value is 6.19%.

Question: What about the “1 µM GBD00276 (ibrutinib), % inhibition” value [30] of the same compound?
Answer: Its value is -2.74%.

Question: What about the “1 µM GBD00276 (ibrutinib), % inhibition” value [31] of the same compound?
Answer: The value was -56.63%.

Question: And the “1 µM GBD00276 (ibrutinib), % inhibition” value [32]?
Answer: Its value is -7.554%.

Question: What about the “1 µM GBD00276 (ibrutinib), % inhibition” value [33] of the same compound?
Answer: Its value is 6.635%.

Question: What about the “1 µM GBD00276 (ibrutinib), % inhibition” value [34] of the same compound?
Answer: The value was -13.3%.

Question: What about the inhibition at 1 µM [35] of the same compound?
Answer: The inhibition at 1 µM was 18%.

Question: And the inhibition at 1 µM [36]?
Answer: Its inhibition at 1 µM is -5.01%.

Question: What about the inhibition at 1 µM [37] of the same compound?
Answer: Its inhibition at 1 µM is 3.6%.

Question: What about the inhibition at 1 µM [38] of the same compound?
Answer: The inhibition at 1 µM was 8.89%.
